According to patent US5434136A, “Treatment of motility disorders with a GNRH analog” (priority 1992, dated 1995):
Where two headings read alike, the source gives them in different places.

Columns and labels:
[1] = tested on: functional bowel disorders; type: in vivo, human
Text: The symptoms of the two patients with GMD were abdominal pain located in the right upper quadrant and epigastrium, daily nausea, and intermittent vomiting exacerbated by eating and by the luteal phase of the menstrual cycle. The two patients with IIHVN had abdominal pain, nausea, and intermittent vomiting, and also had urinary tract involvement consisting of pain and a decrease in urination. The fifth patient had Roux-en-Y syndrome (defined as epigastric-to-right-upper-quadrant pain, nausea, and vomiting increased by eating) after surgical construction of a gastro-jejunal Roux-en-Y anastomosis. The mean duration of these symptoms was eight years (Table 1). All subjects had undergone extensive blood testing, several upper gastrointestinal x-ray series, barium enemas, esophagogastroduodenoscopy, endoscopic retrograde cholangiopancreatography, gastric emptying tests with radiolabeled meal, ultrasound of the abdomen, computerized axial tomography of the abdomen, and many other tests. The results of all tests were normal, except for prolonged gastric emptying in the patient with the Roux-en-Y Syndrome. Because of their intractable clinical problem, these patients were included in the test protocol with leuprolide acetate. Protocol: The symptoms of each patient were first assessed, and their tests evaluated. Each patient kept a daily symptom diary. Leuprolide acetate was obtained by prescription as Lupron (TAP pharmaceuticals, Abbott Labs, North Chicago, Ill.). One multi-use vial of Lupron comprised of […] Leuprolide Acetate. A daily dose of 0.5 mg ([…]) was self-administered by subcutaneous injection, for a period of three months. Each patient was examined at 0, 1 and 3 months of treatment. After the third month, leuprolide was continued as previously, and estrogen (0.625 mg orally) and calcium (1000 mg orally) were also administered. At the end of the sixth month, a two week withdrawal period from leuprolide acetate ensued. During this period a 10 mg oral dose of progesterone was given to pre-menopausal patients, to assess recurrence of symptoms and to induce menses. Post-menopausal women were not treated with progesterone during the two week withdrawal period. This procedure was then continued for an additional six months, with drug withdrawal and progesterone given every three months to induce a menstrual cycle. Serum estradiol, progesterone, FSH, and LH were quantitated by radioimmunoassay prior to the initiation of leuprolide treatment, and at three months post treatment initiation. The procedure of example 1 was followed with additional patients. […] One patient listed as a failure elected to withdraw from the program after four weeks of treatment. One patient after recovering from the symptoms of their autonomic neuropathy expired from a massive myocardial infarction (Responded--expired). These patients were treated with Leuprolide acetate following the protocol established in Example 1.

[2] = tested on: migrating motor complexes, jejunum; test: Leuprolide acetate in ovariectomized female rats: migrating motor complexes; type: in vivo, ovariectomized female Wistar rats; details: for Migrating Motor Complexes, L-Fasted / Migrating Motor Complexes, L-Fed: ovariectomized
Method: Eleven female Wistar rats weighing between 175 and 250 g were each implanted with four bipolar Ag/AgCL electrodes (the preparation of which is described in: Mathias, Am. J. Physiology, 249:[…]-[…], 1981). The electrodes were sewn 5 cm from the Ligament of Trietz and 5 cm apart, onto the jejunal serosa. The number of migrating myoelectric complexes was recorded using a R-612 Dynograph (Sensor-Medics, Anaheim, Calif.). Rats were fasted for 36 hours prior to recording and feeding (no food, liberal water), and were housed in special cages to remove feces. After 36 hours of fasting, Migrating Motor Complexes (MMC) were recorded at a sensitivity of 0.2 mV/cm, 2.5 mm/sec paper speed, and a Time Constant of 1 for a duration of 2 to 4 hours. Immediately following the fasted recording session, the rats were fed 2 biscuits of Purina rat chow with simultaneous recording during feeding and continued for 4 hours. Female Wistar rats were ovariectomized and permitted to recover ten days. Bipolar Ag/AgCl electrodes were then implanted as described for example 4. Control MMC readings in the fasted and fed states were recorded prior to treatment with leuprolide acetate (Controls) as described in Example 4. Treatment with leuprolide acetate followed using doses in the range of 2 to 250 μg/100 g body weight. Fasted and fed recordings were obtained as described for Example 4.

end-stage scleroderma = test: Treatment of end stage scleroderma with leuprolide acetate; type: in vivo, human; details: Patient 6, 0.5 mg daily s.c.
Method: Patient number 6 was in end-stage scleroderma. They had been bed-ridden for approximately eight months, unable to retain food after eating, and was being maintained on total parental hyperalimentation (TPN) to keep up body weight and fluid and electrolyte balance for five months. This patient was treated with 0.5 mg Leuprolide acetate daily, by subcutaneous injection according to the protocol of example 1.

**Q.** With `CCNC(=O)[C@@H]1CCCN1C(=O)[C@H](CCCNC(=N)N)NC(=O)[C@H](CC(C)C)NC(=O)[C@@H](CC(C)C)NC(=O)[C@H](Cc1ccc(O)cc1)NC(=O)[C@H](CO)NC(=O)[C@H](Cc1c[nH]c2ccccc12)NC(=O)[C@H](Cc1c[nH]cn1)NC(=O)[C@@H]1CCC(=O)N1` [Leuprolide acetate, leuprolide acetate] as the molecule, how does the “Duration of therapy until symptom free” value ([1]; Patient 7) read?
**A.** The value was ≤ 8 weeks.

**Q.** And the Response ([1]; Patient 7, Pelvic Floor Dysfunction)?
**A.** The Response was “symptom free”.

**Q.** And the Response ([1]; Patient 7, Pelvic Floor Dysfunction, listed as leuprolide)?
**A.** Its Response is “Responded”.

**Q.** What about the Response ([1]; Patient 8, Chronic Intestinal Pseudo Obstruction, listed as leuprolide) of the same molecule?
**A.** The Response was “Responded”.

**Q.** What about the Response ([1]; Patient 8, Chronic Intestinal Pseudo Obstruction, listed as leuprolide acetate) of the same molecule?
**A.** The Response was “does not chronically experience severe symptoms”.

**Q.** What about the “Hospital admissions since therapy was begun” value ([1]; Patient 8, before: at least one week per month in hospital) of the same molecule?
**A.** Its value is “no hospital admissions”.

**Q.** And the Response ([1]; Patient 9, Roux-en-Y-Syndrome)?
**A.** Its Response is “Responded”.

**Q.** What about the Response ([1]; Patient 10, Roux-en-Y-Syndrome, withdrew) of the same molecule?
**A.** The Response was “Failure”.

**Q.** What about the Response ([1]; Patient 11, Chronic Intestinal Pseudo Obstruction, side effects) of the same molecule?
**A.** Its Response is “Failure”.

**Q.** And the Response ([1]; Patient 12, Roux-en-Y-Syndrome, expired)?
**A.** The Response was “Failure”.

**Q.** And the “Need for parental alimentation for weight control” value ([1]; Patient 13)?
**A.** The value was “no longer requires parental alimentation”.

**Q.** And the Urination ([1]; Patient 13)?
**A.** Its Urination is “improved”.

**Q.** What about the Response ([1]; Patient 13, Idiopathic Intestinal Hollow Visceral Myopathy/Neuropathy, protocol of example 1) of the same molecule?
**A.** Its Response is “improved dramatically”.

**Q.** What about the Response ([1]; Patient 13, Idiopathic Intestinal Hollow Visceral Myopathy/Neuropathy, protocol of example 1, listed as leuprolide) of the same molecule?
**A.** Its Response is “Responded”.

**Q.** And the Response ([1]; Patient 14, Pelvic Floor Dysfunction)?
**A.** Its Response is “Failure”.

**Q.** And the “Need for parental supplementation” value ([1]; Patient 15)?
**A.** Its value is “requires no parental supplementation”.

**Q.** What about the Response ([1]; Patient 15, Chronic Intestinal Pseudo Obstruction) of the same molecule?
**A.** The Response was “steadily improved”.

**Q.** What about the Response ([1]; Patient 15, Chronic Intestinal Pseudo Obstruction, listed as leuprolide) of the same molecule?
**A.** The Response was “Responded”.

**Q.** What about the Response ([1]; Patient 16, Roux-en-Y-Syndrome) of the same molecule?
**A.** Its Response is “relieved”.

**Q.** And the Response ([1]; Patient 16, Roux-en-Y-Syndrome, listed as leuprolide)?
**A.** The Response was “Responded”.

**Q.** And the “Body weight maintained under therapy” value ([1]; Patient 16, weight before 96 pounds)?
**A.** Its value is 115-118 pounds.

**Q.** What about the “Theophylline requirement for lung disease” value ([1]; Patient 17) of the same molecule?
**A.** Its value is “smaller dose of Theophylline is now required”.

**Q.** What about the Response ([1]; Patient 17, Gastrointestinal Motor Dysfunction, protocol of example 1) of the same molecule?
**A.** Its Response is “abated”.

**Q.** What about the Response ([1]; Patient 17, Gastrointestinal Motor Dysfunction, protocol of example 1, listed as leuprolide) of the same molecule?
**A.** Its Response is “Responded”.

**Q.** What about the Pulmonary function tests ([1]; Patient 17, chronic obstructive lung disease) of the same molecule?
**A.** The Pulmonary function tests was “dramatic improvement”.

**Q.** And the Response ([1]; Patient 18, Idiopathic Intestinal Hollow Visceral Myopathy/Neuropathy, protocol of example 1)?
**A.** The Response was “all of their symptoms have improved except for their obstipation”.

**Q.** What about the Response ([1]; Patient 18, Idiopathic Intestinal Hollow Visceral Myopathy/Neuropathy, protocol of example 1, listed as leuprolide) of the same molecule?
**A.** The Response was “Responded”.

**Q.** And the “Duration of therapy after which all symptoms had disappeared” value ([1]; Patient 19)?
**A.** The value was 6 weeks.

**Q.** And the Response ([1]; Patient 19, Gastrointestinal Motor Dysfunction, protocol of example 1, listed as leuprolide)?
**A.** Its Response is “Responded”.

**Q.** What about the “Course after the drug was discontinued” value ([1]; Patient 19, discontinued after six months of treatment) of the same molecule?
**A.** The value was “no recurrent disease”.

**Q.** What about the Response ([1]; Patient 20, Gastrointestinal Motor Dysfunction, protocol of example 1) of the same molecule?
**A.** The Response was “symptom-free”.

**Q.** What about the Response ([1]; Patient 20, Gastrointestinal Motor Dysfunction, protocol of example 1, listed as leuprolide) of the same molecule?
**A.** Its Response is “Responded”.

**Q.** What about the Response ([1]; Patient 21, Gastrointestinal Motor Dysfunction) of the same molecule?
**A.** Its Response is “Responded”.

**Q.** And the Swallowing and eating ([1]; Patient 22)?
**A.** The Swallowing and eating was “now able to swallow and eat”.

**Q.** What about the Response ([1]; Patient 22, Gastrointestinal Motor Dysfunction, response seen after three weeks of therapy) of the same molecule?
**A.** The Response was “dramatic response”.

**Q.** And the Response ([1]; Patient 22, Gastrointestinal Motor Dysfunction, response seen after three weeks of therapy, listed as leuprolide)?
**A.** Its Response is “Responded”.

**Q.** And the “Need of opiates for pain” value ([1]; Patient 23)?
**A.** Its value is “did not require opiates for pain”.

**Q.** And the Response ([1]; Patient 23, Roux-en-Y-Syndrome)?
**A.** Its Response is “Responded”.

**Q.** And the Response ([1]; Patient 23, Roux-en-Y-Syndrome, listed as Lupron)?
**A.** Its Response is “symptom free”.

**Q.** What about the “Side effects leading to withdrawal from treatment” value ([1]; human, in vivo) of the same molecule?
**A.** Its value is “bone pain”.

**Q.** And the “Number of patients who failed to respond” value ([1]; of the twenty-six treated to date)?
**A.** Its value is “Four”.

**Q.** What about the “Response of the majority of patients” value ([1]; twenty-six patients treated to date) of the same molecule?
**A.** Its value is “full recovery”.

**Q.** What about the “Dose required to overcome the reduction of MMC/hour in fed rats” value ([2]; ovariectomized female rats) of the same molecule?
**A.** The value was 100 ug/100 g body weight.

**Q.** What about the “Migrating Motor Complexes, L-Fasted” value ([2]; 2 μg/100 g body weight, control 3.86 + 0.14, mean + SEM) of the same molecule?
**A.** Its value is 4.40 + 0.16 MMC/hour.

**Q.** What about the “Migrating Motor Complexes, L-Fed” value ([2]; 2 μg/100 g body weight, control 0) of the same molecule?
**A.** Its value is 0 MMC/hour.

**Q.** What about the “Migrating Motor Complexes, L-Fasted” value ([2]; 20 μg/100 g body weight, control 5.17 + 0.31, mean + SEM) of the same molecule?
**A.** Its value is 5.40 + 0.15 MMC/hour.

**Q.** And the “Migrating Motor Complexes, L-Fed” value ([2]; 20 μg/100 g body weight, control 0)?
**A.** The value was 0 MMC/hour.

**Q.** What about the “Migrating Motor Complexes, L-Fasted” value ([2]; 40 μg/100 g body weight, control 4.50 + 0.22, mean + SEM) of the same molecule?
**A.** The value was 5.23 + 0.41 MMC/hour.

**Q.** And the “Migrating Motor Complexes, L-Fed” value ([2]; 40 μg/100 g body weight, control 0.88 + 0.58)?
**A.** The value was 0 MMC/hour.

**Q.** What about the “Migrating Motor Complexes, L-Fasted” value ([2]; 100 μg/100 g body weight, control 4.00 + 0.17, mean + SEM) of the same molecule?
**A.** The value was 5.00 + 0.41 MMC/hour.

**Q.** What about the “Migrating Motor Complexes, L-Fed” value ([2]; 100 μg/100 g body weight, control 0, mean + SEM) of the same molecule?
**A.** Its value is 4.50 + 0.34 MMC/hour.

**Q.** What about the “Migrating Motor Complexes, L-Fasted” value ([2]; 250 μg/100 g body weight, control 4.50 + 0.22, mean + SEM) of the same molecule?
**A.** The value was 4.50 + 0.29 MMC/hour.

**Q.** And the “Migrating Motor Complexes, L-Fed” value ([2]; 250 μg/100 g body weight, control 0.88 + 0.58, mean + SEM)?
**A.** The value was 5.00 + 0.58 MMC/hour.

**Q.** What about the “Eating and body weight at discharge” value (end-stage scleroderma) of the same molecule?
**A.** The value was “eating without difficulty, and had gained weight”.

**Q.** What about the “Need for TPN feeding after five weeks of therapy” value (end-stage scleroderma) of the same molecule?
**A.** Its value is “did not require the TPN feeding”.

**Q.** And the “Mobility after five weeks of therapy” value (end-stage scleroderma; bed-ridden before)?
**A.** Its value is “able to move about actively”.
